Test results taken from the supplement of paper PMC10883282.

What was measured:
Test in all cases: relative viability vs DMSO control (72 h) (fraction); higher = more viable cells
[1] = system: HT1080
Method in brief: (§1)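 Relative viability is percent growth read by ATPLite and averaged over up to triplicate wells. Sarcoma cells were seeded in 384-well plates to reach 80–90% confluence and given 2.5 µl of serially diluted compound after 24 h, from source plates of 10 mM to 0.0002 mM. Incubation lasted 72 h at 37 °C, 5% CO2, with 0.1% DMSO vehicle and a 5 µM positive control, and the data were rescaled so 1 equals full and 0 equals none.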

[2] = system: KHOS-240S
Method in brief: as §1

[3] = system: RD-ES
Method in brief: as §1

[4] = system: SW1353
Method in brief: as §1

[5] = system: SW982
Method in brief: as §1

O=S(=O)(c1cccc2cnccc12)N1CCCNCC1 [Fasudil]
relative viability
Conditions | 0.00051 µM | 0.00152 µM | 0.00457 µM | 0.01372 µM | 0.04115 µM | 0.1235 µM | 0.3704 µM | 1.111 µM | 3.333 µM | 10 µM
[1] | 1.03 | 1.03 | 1.066 | 1.04 | 1.03 | 1.03 | 1.06 | 1.06 | 1.07 | 1.06
[2] | 0.974 | 0.976 | 0.961 | 0.966 | 0.957 | 0.961 | 0.959 | 0.952 | 0.942 | 0.8862
[3] | 0.957 | 0.9873 | 0.98 | 0.979 | 0.9688 | 0.98 | 1.009 | 1.005 | 1.01 | 1
[4] | 1.01 | 1.048 | 1.03 | 1.03 | 1.0327 | 1 | 1.04 | 1.03 | 0.97 | 0.888
[5] | 0.974 | 0.974 | 0.966 | 0.987 | 0.976 | 0.971 | 0.961 | 0.977 | 0.962 | 0.966

O=C1NC(=O)[C@@H](c2cn3c4c(cccc24)CCC3)[C@@H]1c1c[nH]c2ccccc12 [Tivantinib]
relative viability
Conditions | [1] | [2] | [3] | [4] | [5]
0.00017 µM | 1.047 | 1.03 | 0.948 | 0.982 | 1.05
0.00051 µM | 1.02 | 1.03 | 0.967 | 0.9442 | 1.04
0.00152 µM | 1.03 | 1.05 | 0.986 | 0.985 | 1.04
0.00457 µM | 1.04 | 1.04 | 1 | 0.96 | 1.07
0.01372 µM | 1.01 | 1.05 | 1 | 0.99 | 1.06
0.04115 µM | 1.04 | 1.01 | 1.01 | 0.963 | 1.04
0.1235 µM | 1.03 | 0.983 | 0.977 | 0.955 | 1.03
0.3704 µM | 1.02 | 0.791 | 0.94 | 0.88 | 0.766
1.111 µM | 0.287 | 0.271 | 0.129 | 0.666 | 0.378
3.333 µM | 0.128 | 0.25 | 0.071 | 0.45 | 0.272
10 µM | 0.0702 | 0.176 | 0.0364 | 0.453 | 0.2611

O=C(Nc1nc2cccc(-c3ccc(CN4CCS(=O)(=O)CC4)cc3)n2n1)C1CC1 [Filgotinib]
relative viability
Conditions | [1] | [2] | [3] | [4] | [5]
0.00017 µM | 1.11 | 1.04 | 0.932 | 1.06 | 1
0.00051 µM | 1.127 | 1.08 | 0.886 | 1.09 | 1.04
0.00152 µM | 1.066 | 1.06 | 0.957 | 1.05 | 1.06
0.00457 µM | 1.06 | 1.08 | 0.946 | 1.01 | 1.08
0.01372 µM | 1.08 | 1.07 | 0.928 | 1.04 | 1.05
0.04115 µM | 1.1 | 1.07 | 0.944 | 1 | 1.06
0.1235 µM | 1.08 | 1.03 | 0.949 | 0.981 | 1.02
0.3704 µM | 1.12 | 1.06 | 0.957 | 1.02 | 1.06
1.111 µM | 1.09 | 1.054 | 0.978 | 1 | 1.02
3.333 µM | 1.13 | 1.02 | 0.924 | 0.985 | 1.06
10 µM | 1.12 | 0.932 | 0.925 | 0.968 | 0.939

CCC(=O)N1CC[C@H](Nc2ncnc3c2CN(c2cnc(OC)c(C(F)(F)F)c2)CC3)C1 [Leniolisib]
relative viability
Conditions | [1] | [2] | [3] | [4] | [5]
0.00017 µM | 1.09 | 1.03 | 0.985 | 1.02 | 1.02
0.00051 µM | 1.077 | 1.05 | 1.034 | 1.04 | 1.05
0.00152 µM | 1.1 | 1.05 | 1.03 | 0.985 | 1.05
0.00457 µM | 1.09 | 1.06 | 1.03 | 0.999 | 1.05
0.01372 µM | 1.05 | 1.05 | 1 | 0.97 | 1.06
0.04115 µM | 1.038 | 1.02 | 1.02 | 0.9439 | 1.06
0.1235 µM | 1.05 | 1.017 | 0.989 | 0.953 | 1.02
0.3704 µM | 1.04 | 0.997 | 0.958 | 0.931 | 1.02
1.111 µM | 1.03 | 0.975 | 0.908 | 0.885 | 0.985
3.333 µM | 1.04 | 0.9 | 0.856 | 0.826 | 0.836
10 µM | 0.94 | 0.8026 | 0.709 | 0.692 | 0.678
